Results on 4 compounds are retold here after US9834823B2, “Primers, assays and methods for detecting an E. coli subtype” (priority 2012, dated 2017).

Test [1] concerns extraintestinal Escherichia coli isolates. The experiment in a line: Antimicrobial susceptibility testing (CLSI breakpoints), Olmsted County isolates. The following applies: for Resistance prevalence among H30 ST131: H30 ST131 subclone, N = 70; for Resistance prevalence among non-H30 ST131: non-H30 ST131, N = 10. It counts as cell-based.
Test [2] has as its system Escherichia coli clinical isolates from U.S. veterans. The experiment in a line: Susceptibility testing (broth microdilution or disk diffusion) at VAMCs with population back-calculations. The format is cell-based. The following applies: for Prevalence of resistance, H30 ST131: H30 ST131 subclone isolates (H30 subclone vs. others); for Prevalence of resistance, ST131: ST131 isolates (ST131 vs. others); for Prevalence of resistance, Total (%): all isolates; for Estimated fraction due to ST131: fraction of resistance phenotype due to ST131; for Overall prevalence in population, %: resistance phenotype, back-calculated with 29% FQ resistance.

[3] abbreviates: all non-H30 isolates (H30 subclone vs. others).
Where [4] appears, read: all non-ST131 isolates (ST131 vs. others).
[5] abbreviates: resistance prevalence among H30 ST131 subclone isolates relative to all other isolates.
The mark [6] stands for this setting: resistance prevalence among ST131 isolates relative to all other isolates.

On to `C[C@@H](O)[C@H]1C(=O)N2C(C(=O)O)=C(SCCN=CN)C[C@H]12` [Imipenem, imipenem], for which the “No. of resistant isolates (column %)” value is reported as 3 (1) in test [1] (All isolates, N = 299); 1 (1) in test [1] (Other STs, N = 129); 0 in test [1] (ST9, N = 32); 0 in test [1] (ST69, N = 15); 0 in test [1] (ST73, N = 25); 2 (14) in test [1] (ST127, N = 18). The “No. of resistant isolates (column %)” value in test [1] (ST131, N = 80) was found to be 0. In addition, the “Prevalence of resistance, H30 ST131” value in test [2] was 0.5. Further, in test [2], the “Prevalence of resistance, ST131” value was 0.4. Moreover, the “Prevalence of resistance, Total (%)” value in test [2] was 0.25%. The “Prevalence of resistance, Others (%)” value in test [2] (setting [3]) and in test [2] (setting [4]) was 0.2% in each case. In test [2], the “Estimated fraction due to ST131” value is recorded as “.50”. Also, the “Overall prevalence in population, %” value in test [2] is 0.25%. Moreover, the “Prevalence ratio of resistance” value in test [2] (setting [5]) and in test [2] (setting [6]) was 1.4 each time.

`O=C1CN(/N=C/c2ccc([N+](=O)[O-])o2)C(=O)N1` [Nitrofurantoin, nitrofurantoin]: the “No. of resistant isolates (column %)” value in test [1] (All isolates, N = 299) was 8 (3); in test [1] (Other STs, N = 129) it was 3 (2); in test [1] (ST9, N = 32), 1 (3); in test [1] (ST69, N = 15), 0; in test [1] (ST73, N = 25), 1 (4); in test [1] (ST127, N = 18) it was 0. For the same compound, the “No. of resistant isolates (column %)” value in test [1] (ST131, N = 80) is 3 (4). For the same compound, the “Resistance prevalence among H30 ST131” value in test [1] was 3%. The “Resistance prevalence among non-H30 ST131” value in test [1] is listed as 13%. Further, the “Prevalence of resistance, H30 ST131” value in test [2] is 8. For the same compound, in test [2], the “Prevalence of resistance, ST131” value is 8. The “Prevalence of resistance, Total (%)” value in test [2] is 6%. Also, the “Prevalence of resistance, Others (%)” value in test [2] (setting [3]) and in test [2] (setting [4]) was 5% throughout. In addition, the “Estimated fraction due to ST131” value in test [2] is given as “.36”. The “Overall prevalence in population, %” value in test [2] is recorded as 6%. In addition, the “Prevalence ratio of resistance” value in test [2] (setting [5]) is reported as 3.4; in test [2] (setting [6]) it was 3.2.

As for ampicillin/sulbactam, in test [2], the “Prevalence of resistance, H30 ST131” value is given as 57; the “Prevalence of resistance, ST131” value was 58; the “Prevalence of resistance, Total (%)” value is 34%; the “Estimated fraction due to ST131” value is listed as “.48”. In addition, the “Overall prevalence in population, %” value in test [2] is reported as 34%. In addition, the “Prevalence of resistance, Others (%)” value in test [2] (setting [3]) was 27%. For the same compound, the “Prevalence of resistance, Others (%)” value in test [2] (setting [4]) is given as 24%. Besides, the “Prevalence ratio of resistance” value in test [2] (setting [5]) was 2.1. Moreover, in test [2] (setting [6]), the “Prevalence ratio of resistance” value is listed as 2.4.

As for piperacillin/tazobactam, the “No. of resistant isolates (column %)” value in test [1] (All isolates, N = 299) is reported as 6 (2); in test [1] (Other STs, N = 129), 2 (2); in test [1] (ST9, N = 32) it was 0; in test [1] (ST69, N = 15), 0; in test [1] (ST73, N = 25), 2 (8); in test [1] (ST127, N = 18), 1 (6). Further, the “No. of resistant isolates (column %)” value in test [1] (ST131, N = 80) is 1 (1). Also, in test [1], the “Resistance prevalence among H30 ST131” value worked out at 1%. For the same compound, the “Resistance prevalence among non-H30 ST131” value in test [1] is 0%.
